One series relates to HBV. The experiment in a line: Anti-HBV activity in vitro, HepG2.2.15 cells, extracellular HBV DNA by qPCR. As to conditions: Hepatitis B virus, HepG2.2.15, 120 h, HepG2.2.15 cells; HBV replication inhibited by 50%, extracellular HBV DNA by qPCR; five days after compound treatment; read-out: EC50. Type of series: cell-based. The text has this:
HepG2.2.15 and HepDE19 are stably-transfected cell lines containing the HBV genome. Both cell lines are derived from the hepatoblastoma cell line Hep G2 (American Type Culture Collection, ATCC® HB-8065™) by the published procedures described in references: MA Selles et al. Proc. Natl. Acad. Sci. USA 1987, 84, 1005-1009 and H Guo et al. Journal of Virology 2007, 81, 12472-12484, respectively. Both cell lines were maintained in Dulbecco's modified Eagle's medium (DMEM)-F12 medium supplemented with 10% fetal bovine serum, 100 U/mL penicillin, 100 μg/mL streptomycin, and 0.5 mg/mL of G418.
While HepG2.2.15 cells constitutively support HBV replication and production of virus particles, HepDE19 cells are inducible by tetracycline. Addition of 1 μg/mL tetracycline in culture medium suppresses HBV replication in HepDE19 cells, whereas switching to tetracycline-free medium resumes this process.
HepG2.2.15 cells were seeded into 96-well plates (3×10^4 cells in 100 μL media per well) and incubated overnight at 37° C. The test compounds were serially half-log diluted in DMSO, then diluted 100 times in culture media. 100 μL of diluted compounds were added into the plates to reach 0.5% final concentration of DMSO in every well. Five days after compound treatment, culture supernatant was collected for further analysis.
For quantitative PCR detection of extracellular HBV DNA, 100 μL of culture supernatant was collected and processed in MagNA Pure 96 Nucleic Acid Purification System (Roche Applied Science) for viral DNA extraction. The extracted samples were subjected to HBV DNA quantification by qPCR.
On the technique in general: Quantitative PCR measures a nucleic acid by following its amplification.

The next series is described as follows: Lysa solubility. Type of series: physicochemical. As to conditions: 0.05 M phosphate buffer (pH 6.5); for solubility thermodynamic: phosphate buffer, pH 6.5, aqueous buffer, thermodynamic from solid. As for the experimental part: Samples were prepared in duplicate from 10 mM DMSO stock solutions. After evaporation of DMSO with a centrifugal vacuum evaporator, the residue was solved in 0.05 M phosphate buffer (pH 6.5), stirred for one hour and shook for two hours. After one night, the solution was filtered using a microtiter filter plate. Then the filtrate and its 1/10 dilution were analyzed by direct UV measurement or by HPLC-UV. […] The results were in μg/mL. In case the percentage of sample measured in solution after evaporation divided by the calculated maximum of sample amount was over 80%, the solubility was reported as higher than this value.

Converted amounts (≈) assume the structure as drawn.

One may read the EC50 as the concentration giving half of the maximal effect. One may read the thermodynamic solubility as the concentration in solution at equilibrium with solid.

For `CCC(CN1C[C@@H]2CN(CC3=C(C(=O)OC)[C@H](c4ccc(F)cc4Cl)N=C(c4nccs4)N3)CCN2C1=O)C(=O)O` (stereo partly drawn) [Example 75, 2-[[(8aS)-7-[[(4R)-4-(2-chloro-4-fluoro-phenyl)-5-methoxycarbonyl-2-thiazol-2-yl-1,4-dihydropyrimidin-6-yl]methyl]-3-oxo-5,6,8,8a-tetrahydro-1H-imidazo[1,5-a]pyrazin-2-yl]methyl]butanoic acid], the EC50 with HBV was found to be 24 nM. For the same compound, the thermodynamic solubility in the series “Lysa solubility” is > 774 µg/mL.
As for `CCOC(=O)C1=C(CN2CCN3C(=O)N(C(C)C)C[C@H]3[C@@H]2C(=O)O)NC(c2nccs2)=N[C@H]1c1cccc(F)c1Cl` (single isomer, unassigned) [Example 84A], the EC50 with HBV worked out at 45 nM. The “Lysa” value in the series “Lysa solubility” worked out at 570 µg/mL.
Turning to `COC(=O)C1=C(CN2CCN3C(=O)N(C4(CC(=O)O)CC4)C[C@H]3C2)NC(c2nccs2)=N[C@H]1c1ccc(F)cc1Cl` [Example 46, 2-[1-[(8aR)-7-[[(4R)-4-(2-chloro-4-fluoro-phenyl)-5-methoxycarbonyl-2-thiazol-2-yl-1,4-dihydropyrimidin-6-yl]methyl]-3-oxo-5,6,8,8a-tetrahydro-1H-imidazo[1,5-a]pyrazin-2-yl]cyclopropyl]acetic acid], in the series with HBV, the EC50 turned out to be 26 nM. Moreover, the solubility (thermodynamic) in “Lysa solubility” is > 744 µg/mL.
On to `CCOC(=O)C1=C(CN2CCN3C(=O)N([C@@H]4CCCC4C(=O)O)C[C@@H]3C2)NC(c2nccs2)=N[C@H]1c1cccc(F)c1Cl` (stereo in doubt) [Example 49, (1S,2R)-2-[(8aS)-7-[[(4R)-4-(2-chloro-3-fluoro-phenyl)-5-ethoxycarbonyl-2-thiazol-2-yl-1,4-dihydropyrimidin-6-yl]methyl]-3-oxo-5,6,8,8a-tetrahydro-1H-imidazo[1,5-a]pyrazin-2-yl]cyclopentanecarboxylic acid], for which the EC50 with HBV came to 8 nM. Besides, in “Lysa solubility”, the thermodynamic solubility stood at 312 µg/mL (≈ 494 µM).
Take `COC(=O)C1=C(CN2CCN3[C@@H](CNS3(=O)=O)C2)NC(c2nccs2)=N[C@H]1c1ccc(F)cc1Cl` [Example 18, Methyl (4R)-6-[[(3aR)-1,1-dioxo-2,3,3a,4,6,7-hexahydro-[1,2,5]thiadiazolo[2,3-a]pyrazin-5-yl]methyl]-4-(2-chloro-4-fluoro-phenyl)-2-thiazol-2-yl-1,4-dihydropyrimidine-5-carboxylate]: the EC50 with HBV was 108 nM.
In the case of `COC(=O)C1=C(CN2CCN3C(=O)CC[C@@H]3C2)NC(c2nccs2)=N[C@H]1c1ccc(F)cc1Cl` [Example 6, Methyl (4R)-6-[[(8aR)-6-oxo-1,3,4,7,8,8a-hexahydropyrrolo[1,2-a]pyrazin-2-yl]methyl]-4-(2-chloro-4-fluoro-phenyl)-2-thiazol-2-yl-1,4-dihydropyrimidine-5-carboxylate], the EC50 in the series on HBV was 14 nM.
On to `COC(=O)C1=C(CN2CCN3C(=O)NC(=O)[C@H]3C2)NC(c2nccs2)=N[C@H]1c1ccc(F)cc1Cl` [Example 15, Methyl (4R)-6-[[(8aR)-1,3-dioxo-5,6,8,8a-tetrahydroimidazo[1,5-a]pyrazin-7-yl]methyl]-4-(2-chloro-4-fluoro-phenyl)-2-thiazol-2-yl-1,4-dihydropyrimidine-5-carboxylate], for which the EC50 with HBV was 110 nM.
The same measure, in the same setting: the result for `CCOC(=O)C1=C(CN2CCN3C(=O)N(CC(C)C)C[C@H]3[C@@H]2C(=O)O)NC(c2nccs2)=N[C@H]1c1cccc(F)c1Cl` (single isomer, unassigned) [Example 101A] reads 40 nM; that for `COC(=O)C1=C(CN2CCN3C(=O)N(C(C)(C)C)C[C@H]3[C@@H]2C(=O)O)NC(c2nccs2)=N[C@H]1c1ccc(F)c(F)c1C` (single isomer, unassigned) [Example 88A], 677 nM.
In the case of `COC(=O)C1=C(CN2CCN3C(=O)N(c4ccc(C(=O)O)nc4)CC3C2)NC(c2nccs2)=N[C@H]1c1ccc(F)cc1Cl` (mixture of isomers) [Example 95, 5-[7-[[(4R)-4-(2-chloro-4-fluoro-phenyl)-5-methoxycarbonyl-2-thiazol-2-yl-1,4-dihydropyrimidin-6-yl]methyl]-3-oxo-5,6,8,8a-tetrahydro-1H-imidazo[1,5-a]pyrazin-2-yl]pyridine-2-carboxylic acid], the EC50 in the series with HBV stood at 11 nM. Moreover, in the series “Lysa solubility”, the thermodynamic solubility amounted to 307 µg/mL (≈ 490 µM).
For the compound `CCOC(=O)C1=C(CN2CCN3C(=O)N(C(C)(C)C)C[C@@H]3[C@H]2C(=O)OC)NC(c2nccs2)=N[C@H]1c1cccc(F)c1Cl` (single isomer, unassigned) [Compound 87B-1], in the series with HBV, the EC50 stood at 4 nM.
For `CCOC(=O)C1=C(CN2CCN3C(=O)OC[C@H]3[C@@H]2C(=O)O)NC(c2nccs2)=N[C@H]1c1cccc(F)c1Cl` (single isomer, unassigned) [Example 102A], in the series with HBV, the EC50 is 147 nM.
With `COC(=O)C1=C(CN2CCN3C(=O)N(C4CC4)C[C@H]3[C@@H]2C(=O)O)NC(c2nccs2)=N[C@H]1c1ccc(F)c(F)c1C` (single isomer, unassigned) [Example 83A], the “Lysa” value in “Lysa solubility” was > 740 µg/mL.
Take `CCOC(=O)C1=C(CN2CCN3C(=O)CCCC3C2)NC(c2nccs2)=N[C@H]1c1cccc(F)c1Cl` (stereo partly drawn) [Example 10, Ethyl (4R)-4-(2-chloro-3-fluoro-phenyl)-6-[(6-oxo-3,4,7,8,9,9a-hexahydro-1H-pyrido[1,2-a]pyrazin-2-yl)methyl]-2-thiazol-2-yl-1,4-dihydropyrimidine-5-carboxylate]: the EC50 with HBV was 57 nM.
Same read-out and setting: as for `CCOC(=O)C1=C(CN2CCN3C(=O)N(C)C[C@@H]3[C@H]2C(=O)O)NC(c2nccs2)=N[C@H]1c1cccc(F)c1Cl` (single isomer, unassigned) [Example 91A], the figure is 150 nM; as for `CCOC(=O)C1=C(CN2CCN3C(=O)N(C(C)(C)C(=O)OC)CC3C2)NC(c2nccs2)=N[C@H]1c1cccc(F)c1Cl` (stereo partly drawn) [Example 23, Ethyl (4R)-4-(2-chloro-3-fluoro-phenyl)-6-[[2-(2-methoxy-1,1-dimethyl-2-oxo-ethyl)-3-oxo-5,6,8,8a-tetrahydro-1H-imidazo[1,5-a]pyrazin-7-yl]methyl]-2-thiazol-2-yl-1,4-dihydropyrimidine-5-carboxylate], 3 nM.
As for `CCOC(=O)C1=C(CN2CCN3C(=O)N(CCC(=O)O)C[C@@H]3C2)NC(c2nccs2)=N[C@H]1c1cccc(F)c1Cl` [Example 56, (R)-6-[(S)-2-(2-Carboxy-ethyl)-3-oxo-hexahydro-imidazo[1,5-a]pyrazin-7-ylmethyl]-4-(2-chloro-3-fluoro-phenyl)-2-thiazol-2-yl-1,4-dihydro-pyrimidine-5-carboxylic acid ethyl ester], the EC50 in the series with HBV came to 26 nM. Further, in the series “Lysa solubility”, the thermodynamic solubility was > 740 µg/mL.
As to `COC(=O)C1=C(CN2CCN3C(=O)CC[C@@H]3C2)NC(c2nccs2)=N[C@H]1c1ccc(F)cc1Br` [Example 7, Methyl (4R)-6-[[(8aR)-6-oxo-1,3,4,7,8,8a-hexahydropyrrolo[1,2-a]pyrazin-2-yl]methyl]-4-(2-bromo-4-fluoro-phenyl)-2-thiazol-2-yl-1,4-dihydropyrimidine-5-carboxylate], in the series with HBV, the EC50 came out at 14 nM.
Regarding `CCOC(=O)C1=C(CN2CCN3C(=O)NC[C@H]3C2)NC(c2nccs2)=N[C@H]1c1ccc(F)cc1Br` [Example 13, Ethyl (4R)-6-[[(8aS)-3-oxo-1,2,5,6,8,8a-hexahydroimidazo[1,5-a]pyrazin-7-yl]methyl]-4-(2-bromo-4-fluoro-phenyl)-2-thiazol-2-yl-1,4-dihydropyrimidine-5-carboxylate], the EC50 in the series with HBV came to 66 nM.

For the origin of these results see patent US9233978B2, “6-fused heteroaryldihydropyrimidines for the treatment and prophylaxis of hepatitis B virus infection” (Hoffmann-La Roche Inc., priority 2014, dated 2016).
